Where two headings read alike, the source gives them in different places.
What was measured:
[1] = PK study in rats (plasma); assay type: in vivo; details: rats; for half-life: plasma
[2] = tested on: cisplatin induced acute kidney injury (AKI) mouse model; assay: Cisplatin induced kidney injury model in mice; assay type: in vivo, BALB/c female mice
Experimental: The study was performed using protocols approved by the Institutional Animal Ethics Committee (IAEC) based on CPCSEA guidelines for animal care and use. BALB/c female mice of 6-8 weeks age were divided into 5 groups with each group containing 6 members. Animal room environment were monitored for temperature and relative humidity twice a day. The temperature range was 22° C.±3° C. and the humidity range was 30-70%, although the upper range for humidity may be exceeded during room cleaning. Animals were housed in IVC systems and provided with cycles of 12 hours of light and 12 hours of darkness through the study. SDS Feed (M/s. SDS diets services) and autoclaved drinking water was provided ad libitum.
The vehicle for cisplatin was 0.9% saline while the vehicle for compound 100 was PBS at pH 6. The compound 100 formulations were prepared just prior to doing each time. The study was performed in 5 groups.
Animals were acclimatized prior to the study. Pretreatment with compound 100 was administered for 3 days before cisplatin dosing. Animals were weighed and administered vehicle in group 1 and cisplatin was administered at a single dose of 25 mg/kg to groups 2, 3, 4 and 5 intraperitonially on day-3 of the study. The oral dose groups (groups 3-5) were dosed with compound 100 twice daily for 6 days (3 days pre-dose and 3 days post-dose cisplatin).
Blood samples were collected at end of the study (12 h, post last dose terminal sampling, cardiac puncture) in 2 ml Eppendorf tubes, and serum was separated and stored at −20° C. for clinical chemistry analysis.
All animals survived and were sacrificed at end of the study (12 hours post last test compound dose) with an overdose of CO2. […] Serum creatinine and blood urea nitrogen (BUN) was determined using a clinical chemistry analyzer on the final day of blood collection and the results are graphically illustrated for groups 1-5 in FIG. 13 and FIG. 14, respectively.

[3] = Long term solid stability at −15° C. (purity by UPLC); assay type: physicochemical; details: for Purity % by UP LC: solid state, −15° C. (freezer)
Experimental: The compound from this vial was assessed for purity by UPLC at two different timepoints: Day 0 and Day 93 (3 months).

[4] = Distribution in kidney and liver tissue after 24 hrs in rats; details: compared with nicotinic acid
human hepatocytes = assay: Human hepatocyte clearance; assay type: in vitro ADME
Outline: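 Cryopreserved human hepatocytes at a 2 million cell working stock mixed 1:1 with 2 μM compound working stock at 37 °C, in duplicate. Samples quenched in acetonitrile with internal standard at 0, 15, 30, 60 and 90 min, then analysed by LC-MS/MS.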

[5] = Human plasma protein binding (RED dialysis); details: human, plasma, human plasma, 10 μM, 5 hours dialysis
Experimental: The test compounds were weighed and prepared as 10 mM stocks in 100% DMSO. 10 μM is the final test concentration for all compounds.
The samples were prepared by spiking test compound(s) in plasma at 10 μM final concentration. 200 μL of plasma containing the test compound was added into the donor well (RED Chamber) of the insert. Simultaneously 350 μL of dialysis buffer (1×PBS) was added into the receiver well (white chamber). Two measurements were made for each test compound. The plate was covered with a sealer and incubated at 37° C. degrees on an orbital shaker at 500 rpm for 5 hours.
After incubation, 25 μl of plasma (RED chamber) and 25 μl of buffer (white chamber) samples were separately collected into separate centrifugation tubes. Plasma and buffer samples were precipitated with 200 μL of 100% acetonitrile containing internal standards. 25 μl of T0 (T Zero) plasma samples (samples before 5 hours incubation) were collected (To samples were processed immediately after the preparation of plasma working stock solution. These samples serve as a measure for calculating the percentage recovery of the test compound and precipitated using 100% acetonitrile containing internal standards). The samples were vortexed at 1000 rpm for 5 min and centrifuged at 4000 rpm for 10 min. The supernatant was diluted 2-fold with water and injected into LC-MS/MS.
The % of Plasma bound/unbound fraction was calculated by the following equation: % Unbound or % free=100*(Fc/Tc); % Recovery=100 (Fc+Tc)/[…] where Tc=Total compound concentration as determined by the calculated concentration on the plasma side of the membrane (concentration in plasma chamber), Fc=Free compound concentration as determined by the calculated concentration on the buffer side of the membrane (concentration in buffer chamber) and T0=Total compound concentration as determined before dialysis.

[6] = rat, Group 2: compound 100 83 mg/kg IV, analyte compound 100 in plasma
[7] = mice, 50, 250 and 500 mg/kg PO twice daily for 6 days, cisplatin 25 mg/kg IP, p<0.05

O=C(OC1O[C@H](CO)[C@@H](O)[C@H]1O)c1cccnc1 (stereo partly drawn) [Compound 100, (3R, 4S, 5R)-3,4-dihydroxy-5-(hydroxymethyl) tetrahydrofuran-2-yl nicotinate]
half-life ([1]; rat, iv, 83 mg/kg, Group 2: compound 100 83 mg/kg IV, analyte compound 100 in plasma, read-out: T1/2 (converted)): 1.01 ± 0.22 h | half-life ([1]; rat, iv, 83 mg/kg, delivered by IV, read-out: T1/2 of degradation in rat plasma (converted)): 1 h | half-life ([1]; rat, po, 415 mg/kg, oral, said to be consistent with hepatocyte stability in vitro, read-out: T1/2 following oral administration): 5 to 6 h | Cmax [1, 6]: 188 ± 97.2 µM | Tmax [1, 6]: 8.34 ± 5.76 min | clearance [1, 6]: 37.7 mL/min/kg | AUC(0-t) ([1]; rat, Group 2: compound 100 83 mg/kg IV, analyte compound 100 in plasma, read-out: AUC0-1): 148 ± 34 µM·h | Vd ([1]; rat, Group 2: compound 100 83 mg/kg IV, analyte compound 100 in plasma, read-out: Vss): 3.4 ± 1.62 L/kg | in vivo pharmacology compared with nicotinic acid (conclusion) [1]: superior in vivo pharmacology than nicotinic acid with a longer half-life, lower maximal concentration (C), better bioavailability and has a depot effect in the kidney and liver | IV pharmacokinetics profile (in words) ([1]; IV): biphasic rapid distribution followed by elimination | BUN compared to group 2 (cisplatin only) [2, 7]: significant reduction | serum creatinine compared to group 2 (cisplatin only) [2, 7]: significant reduction | nephroprotection (conclusion) ([2]; mice, all three oral doses): nephroprotection | Purity % by UP LC ([3]; Day 0): 98.92% | Purity % by UP LC ([3]; Day 93): 99.62% | solid state stability (in words) ([3]; stored at −15° C. for up to three months): stable | delivery of nicotinic acid into the tissues [4]: more efficiently than nicotinic acid

COC(=O)[C@@H](C)NP(=O)(OC[C@H]1OC(OC(=O)c2cccnc2)[C@H](O)[C@@H]1O)Oc1ccccc1 (stereo partly drawn) [Compound 101, (3R, 4S, 5R)-3,4-dihydroxy-5-(((((1-methoxy-1-oxopropan-2-yl)amino)(phenoxy)phosphoryl)oxy)methyl)tetrahydrofuran-2-yl nicotinate]
Remarks (clearance class) (human hepatocytes): high clearance and High | fraction unbound at 5 h, 10 μM ([5]; % Bound in plasma): 0.306 | fraction unbound at 5 h, 10 μM ([5]; % Unbound in plasma): 0.306 | fraction unbound at 5 h, 10 μM ([5]; Fraction unbound): 0.31
